Data from publication PMC12028158, “Synthesis and In Vitro Evaluation of the Anticancer Effect of Novel Phosphonium Vindoline Derivatives” (International Journal of Molecular Sciences, 2025).

What was measured:
[1] = tested on: HeLa; test: MTT antiproliferative assay; type: cell-based, human
Method: (§1) The antiproliferative properties of the tested compounds were additionally determined using the MTT assay against a panel of human adherent cancer cell lines isolated from breast (MCF-7 and MDA-MB-231), cervical (HeLa and SiHa), and ovarian (A2780) tumors and also on the NIH/3T3 fibroblast cell line (Table 3). IC50 values were calculated from a wider concentration range (0.1–30 μM) when higher than 50% cell growth inhibition was obtained at 10 μM (Table 4). Cisplatin was used as a reference compound. […] The noncancerous fibroblast cell line NIH/3T3 was used to gather preliminary data regarding the cancer selectivity of vindolin derivatives. […] The tumor selectivity of compound 9g, expressed as the ratio of IC50 on cancer cells and fibroblasts, is substantially higher than that of cisplatin (Table 4).
(§2) The antiproliferative effects of the prepared derivatives were evaluated in vitro using the MTT assay against a panel of human adherent cancer cell lines, including breast (MDA-MB-231, MCF-7), cervical (SiHa, HeLa), and ovarian (A2780) cancer cells. The noncancerous fibroblast cell line NIH/3T3 was included to obtain data concerning the tumor selectivity of the test substances. All cell lines were sourced from the European Collection of Cell Cultures (Salisbury, UK), except for SiHa (American Tissue Culture Collection (Manassas, VA, USA). All cell lines were maintained in Eagle’s Minimal Essential Medium (EMEM) supplemented with 10% fetal bovine serum (FBS), 1% non-essential amino acids, and a mixture of penicillin, streptomycin, and amphotericin B. The cells were maintained in a humidified atmosphere containing 5% CO2 at 37 °C. The media and the cell culture supplements were procured from Capricorn Scientific Ltd. (Ebsdorfergrund, Germany). Cells were seeded into 96-well microplates at 5000/well and, the next day, treated with vindoline derivatives at two concentrations (10 or 30 μM) for 72 h under cell culturing conditions. […] When higher than 50% cell growth inhibition was observed, the assay was repeated using a wide concentration range (0.1–30 μM). The IC50 values were calculated using GraphPad Prism software 10.3.1 (GraphPad Software, San Diego, CA, USA). Two independent experiments were performed with at least five replicates per condition.

[2] = tested on: MCF-7; test: MTT antiproliferative assay; type: cell-based, human
Method: as §1, §2

[3] = tested on: A2780; test: MTT antiproliferative assay; type: cell-based, human
Method: as §1, §2

[4] = tested on: SiHa; test: MTT antiproliferative assay; type: cell-based, human
Method: as §1, §2

[5] = tested on: MDA-MB-231; test: MTT antiproliferative assay; type: cell-based, human
Method: as §1, §2

[6] = tested on: panel of human adherent cancer cell lines; test: MTT antiproliferative assay, whole cancer panel; type: cell-based; conditions: Homo sapiens
Method: as §1, §2

[7] = tested on: A2780 cells; test: Wound healing migration assay; type: cell-based, human; conditions: A2780, sub-inhibitory concentrations (0.5 or 1.0 µM), 24 and 48 h
Method: The antimigratory properties of compound 9g were investigated using the in vitro wound healing assay against the ovarian cancer cell line A2780.
The effect of compound 9g on the migration of A2780 cells was assessed using a wound-healing assay. A2780 cells were trypsinized and seeded into specialized wound assay chambers (ibidi GmbH, Martinsried, Germany) at a density of 80,000 cells/insert and the plate was incubated under standard conditions to allow proper attachment. After incubation, the inserts were carefully removed and the wells were washed twice with PBS to eliminate non-adherent cells and debris. The cells were subsequently treated with […] at 0.5 or 1.0 µM in fresh medium containing 2% FBS. The migration of cells toward the wound site was visualized using a phase-contrast inverted microscope (Nikon Instruments Europe, Amstelveen, The Netherlands) and images were captured with a CCD camera (QImaging MicroPublisher Color RTV5.0 Teledyne Photometrics, Tucson, AZ, USA). The percentage of cell migration was calculated at different time intervals (0, 24, and 48 h) by measuring the cell-free area in treated samples against untreated controls using ImageJ software 1.54d (National Institutes of Health, Bethesda, MD, USA). The experiments were conducted twice with at least three parallel samples.

[8] = tested on: NIH/3T3 (fibroblast); test: MTT antiproliferative assay; type: cell-based; conditions: Mus musculus, 72 h
Method: as §1, §2

IC50 ([1]; Homo sapiens, HeLa, MTT, 72 h, read-out: IC50 Value (μM) ± SEM): 6.48 ± 0.12 µM | IC50 ([2]; Homo sapiens, MCF7, MCF-7, MTT, 72 h, read-out: IC50 Value (μM) ± SEM): 2.56 ± 0.1 µM | IC50 ([3]; Homo sapiens, A2780, MTT, 72 h, read-out: IC50 Value (μM) ± SEM): 1.5 ± 0.2 µM | IC50 ([5]; Homo sapiens, MDA-MB-231, MTT, 72 h, read-out: IC50 Value (μM) ± SEM): 3.35 ± 0.12 µM | IC50 ([6]; range over the cancer cells): 1.5 to 6.48 µM
Structure (SMILES): CC[C@]12C=CCN3CC[C@@]4(c5ccc(OC)cc5N(C)[C@H]4[C@@](O)(C(=O)OC)[C@@H]1OC(=O)CCC[P+](c1ccccc1)(c1ccccc1)c1ccccn1)[C@@H]32 [9g]
inhibition at 10 µM ([1]; Homo sapiens, HeLa, 10 μM, 72 h, read-out: Growth Inhibition (%) ± SEM): 61.5 ± 2.35% | inhibition at 30 µM ([1]; Homo sapiens, HeLa, 30 μM, 72 h, read-out: Growth Inhibition (%) ± SEM (converted)): 68.5% | Selectivity Ratio ([1]; ratio of IC50 on HeLa cells and NIH/3T3 fibroblasts): 0.45 | inhibition at 10 µM ([2]; Homo sapiens, MCF7, MCF-7, 10 μM, 72 h, read-out: Growth Inhibition (%) ± SEM): 81.9 ± 0.84% | inhibition at 30 µM ([2]; Homo sapiens, MCF7, MCF-7, 30 μM, 72 h, read-out: Growth Inhibition (%) ± SEM (converted)): 89.9% | Selectivity Ratio ([2]; ratio of IC50 on MCF-7 cells and NIH/3T3 fibroblasts): 0.18 | inhibition at 10 µM ([3]; Homo sapiens, A2780, 10 μM, 72 h, read-out: Growth Inhibition (%) ± SEM): 79.4 ± 2.63% | inhibition at 30 µM ([3]; Homo sapiens, A2780, 30 μM, 72 h, read-out: Growth Inhibition (%) ± SEM (converted)): 85.5% | Selectivity Ratio ([3]; ratio of IC50 on A2780 cells and NIH/3T3 fibroblasts): 0.10 | inhibition at 10 µM ([4]; Homo sapiens, SiHa, 10 μM, 72 h, read-out: Growth Inhibition (%) ± SEM): 62.5 ± 0.87% | inhibition at 30 µM ([4]; Homo sapiens, SiHa, 30 μM, 72 h, read-out: Growth Inhibition (%) ± SEM (converted)): 83.8% | IC50 ([4]; Homo sapiens, SiHa, MTT, 72 h, read-out: IC50 Value (μM) ± SEM): 2.42 ± 0.05 µM | Selectivity Ratio ([4]; ratio of IC50 on SiHa cells and NIH/3T3 fibroblasts): 0.17 | inhibition at 10 µM ([5]; Homo sapiens, MDA-MB-231, 10 μM, 72 h, read-out: Growth Inhibition (%) ± SEM): 72.04 ± 0.35% | inhibition at 30 µM ([5]; Homo sapiens, MDA-MB-231, 30 μM, 72 h, read-out: Growth Inhibition (%) ± SEM (converted)): 87.7% | Selectivity Ratio ([5]; ratio of IC50 on MDA-MB-231 cells and NIH/3T3 fibroblasts): 0.23 | inhibition at 10 µM ([6]; 10 μM, against all tested cancer cells, read-out: cell growth inhibition): > 60% | cell migration [7]: concentration- and duration-dependent reduction in cell migration | inhibition at 10 µM ([8]; NIH3T3, 10 μM, read-out: Growth Inhibition (%) ± SEM): 34.6 ± 1.11% | inhibition at 30 µM ([8]; NIH3T3, 30 μM, read-out: Growth Inhibition (%) ± SEM (converted)): 77.2% | IC50 ([8]; NIH3T3, MTT, read-out: IC50 Value (μM) ± SEM): 14.37 ± 0.02 µM
